Like-named read-outs stand apart in the source and are kept apart here. Where only a bound is given, the exact number is not on record here.

Among the data in patent US10144742B2 (Millennium Pharmaceuticals, Inc., priority 2014, dated 2018) are IC50 and inhibition values, retold here.

For one experiment, the target named is hNAMPT protein (Homo sapiens (Human), UniProt P43490). In words: NAMPT enzyme assay (TR-FRET/HTRF, BodiPY ligand, anti 6His-Tb). The experiment is classed as binding. Particulars: for IC50: NAMPT IC50 range class, read-out: IC50; for inhibition at 1 µM: read-out: Percent Inhibition. The gist of the method: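 TR-FRET binding assay in which His-tagged human NAMPT with anti-6His-Tb is displaced by compound from a BodiPY ligand, incubated 1 h at rt in the dark. Excitation was at 320 nm, with the 520/486 nm emission ratio read. IC50 was fitted from inhibition relative to DMSO controls.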
Chain of hNAMPT protein (P43490 whole entry): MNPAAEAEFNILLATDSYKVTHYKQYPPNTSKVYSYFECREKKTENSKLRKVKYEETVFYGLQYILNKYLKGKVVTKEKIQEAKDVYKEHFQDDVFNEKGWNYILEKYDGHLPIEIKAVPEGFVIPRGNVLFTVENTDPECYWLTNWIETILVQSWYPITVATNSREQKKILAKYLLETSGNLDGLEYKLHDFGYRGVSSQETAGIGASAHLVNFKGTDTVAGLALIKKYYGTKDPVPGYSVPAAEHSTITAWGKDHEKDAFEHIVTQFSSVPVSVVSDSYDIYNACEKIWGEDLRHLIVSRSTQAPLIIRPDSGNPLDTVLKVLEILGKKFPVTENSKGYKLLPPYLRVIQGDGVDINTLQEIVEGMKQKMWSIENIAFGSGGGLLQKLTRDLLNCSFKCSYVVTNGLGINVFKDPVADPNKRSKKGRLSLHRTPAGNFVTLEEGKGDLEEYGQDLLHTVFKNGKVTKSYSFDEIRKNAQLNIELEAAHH
On the technique in general: Time-resolved FRET reads energy transfer from a long-lived donor to a nearby acceptor.

The test system of another experiment is PC3 cells. In words: PC3 growth inhibition (Cell-titer glo, 72 hours). The experiment is classed as cell-based. Particulars: Homo sapiens, PC-3, PC3 cells, 72 hours, Cell-titer glo, read-out: Percent Inhibition (PC3 growth inhibition); for inhibition at 1.667 µM: compound concentration 1.667 μM; for inhibition at 1 µM: compound concentration 1 μM. An outline of the steps:
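PC3 cells in RPMI1640 seeded overnight at 37 °C, 5% CO2, then exposed to compound diluted in AIM serum-free medium for 72 h. Viability by CellTiter-Glo luminescence vs DMSO controls; single-concentration % remaining viability (1 μM or 1.667 μM), or GI50/LD50 from curves.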

For `O=C(NCCCc1ncc[nH]1)c1ccc2nc(OC3CCOCC3)c(-c3ccc(Cl)cc3)nc2c1` [Compound I-111, 3-(4-chlorophenyl)-N-[3-(1H-imidazol-2-yl)propyl]-2-(tetrahydro-2H-pyran-4-yloxy)quinoxaline-6-carboxamide], the half-maximal inhibitory concentration (IC50) – broadly, the concentration that inhibits the measured activity by half – on hNAMPT protein was less than 100 nM. For the same compound, at hNAMPT protein (compound concentration 1 μM), the inhibition (commonly the drop in the measured response relative to a control, in per cent) at 1 µM came out at 99%. Moreover, in the experiment with PC3 cells, the inhibition at 1.667 µM amounted to 2%.

As to `O=C(NCCCn1ccnc1)c1ccc2nc(N3CCC(N4CCNCC4)CC3)c(-c3ccccc3)nc2c1` [Compound I-112, N-[3-(1H-imidazol-1-yl)propyl]-3-phenyl-2-[4-(piperazin-1-yl)piperidin-1-yl]quinoxaline-6-carboxamide], on hNAMPT protein, the IC50 was less than 100 nM. For the same compound, the inhibition at 1 µM at hNAMPT protein (compound concentration 1 μM) is 100%; in the experiment on PC3 cells it was -1%.

With `CC1(C)CN(c2nc3cc(C(=O)NCCCn4ccnc4)ccc3nc2-c2ccccc2)CCO1` [Compound I-113, 3-(2,2-dimethylmorpholin-4-yl)-N-[3-(1H-imidazol-1-yl)propyl]-2-phenylquinoxaline-6-carboxamide], the IC50 on hNAMPT protein is 500 to 1000 nM. For the same compound, the inhibition at 1 µM on hNAMPT protein (compound concentration 1 μM) is 64%; with PC3 cells, -8%.

For `O=C(NCCOc1cccnc1)c1ccc2nc(N3CCC(O)CC3)c(-c3ccc(F)cc3)nc2c1` [Compound I-114, 3-(4-Fluorophenyl)-2-(4-hydroxypiperidin-1-yl)-N-[2-(pyridin-3-yloxy)ethyl]quinoxaline-6-carboxamide], on hNAMPT protein, the IC50 is less than 100 nM and the inhibition at 1 µM was more than 99%. In the experiment with PC3 cells, the inhibition at 1.667 µM was 2%.

Take `C[C@@H]1CN(c2nc3ccc(C(=O)NCCCn4ccnc4)cc3nc2-c2ccccc2)C[C@H](C)O1` [Compound I-115, cis-2-[(2R,6S)-2,6-dimethylmorpholin-4-yl]-N-[3-(1H-imidazol-1-yl)propyl]-3-phenylquinoxaline-6-carboxamide]: the half-maximal inhibitory concentration (IC50) on hNAMPT protein was less than 100 nM. Moreover, the values for the inhibition at 1 µM at hNAMPT protein (compound concentration 1 μM) and in the experiment on PC3 cells were 100% and -8%, respectively.

Consider `O=C(NCCCc1ncc[nH]1)c1ccc2nc(N3CCCC3)c(-c3ccc(Cl)cc3)nc2c1` [Compound I-116, 3-(4-chlorophenyl)-N-[3-(1H-imidazol-2-yl)propyl]-2-(pyrrolidin-1-yl)quinoxaline-6-carboxamide], for which, on hNAMPT protein, the half-maximal inhibitory concentration (IC50) is less than 100 nM. Besides, on hNAMPT protein (compound concentration 1 μM), the inhibition at 1 µM was determined as 98%. Moreover, in the experiment on PC3 cells, the inhibition at 1.667 µM worked out at 2%.

As to `O=C(NCCc1cccnc1)c1ccc2nc(-c3ccco3)c(-c3ccco3)nc2c1` [Compound I-117, 2,3-di(2-furyl)-N-[2-(pyridin-3-yl)ethyl]quinoxaline-6-carboxamide], the half-inhibitory concentration (IC50) at hNAMPT protein lay within 2000 to 10000 nM. Besides, the values for the inhibition at 1 µM on hNAMPT protein (compound concentration 1 μM) and with PC3 cells were 22% and 97%, respectively.

Consider `O=C(NCCc1c[nH]cn1)c1ccc2nc(-c3ccccc3)c(-c3ccccc3)nc2c1` [Compound I-118, N-[2-(1H-imidazol-4-yl)ethyl]-2,3-diphenylquinoxaline-6-carboxamide], for which, on hNAMPT protein, the IC50 is 2000 to 10000 nM. In addition, the inhibition at 1 µM turned out to be 29% on hNAMPT protein (compound concentration 1 μM) and 85% in the experiment on PC3 cells.

As to `Cn1cc(-c2nc3ccc(C(=O)NCCCn4ccnc4)cc3nc2-c2ccccc2)cn1` [Compound I-119, N-[3-(1H-imidazol-1-yl)propyl]-2-(1-methyl-1H-pyrazol-4-yl)-3-phenylquinoxaline-6-carboxamide], the 50% inhibitory concentration (IC50) on hNAMPT protein fell in the range of 500 to 1000 nM. Further, the results for the inhibition at 1 µM at hNAMPT protein (compound concentration 1 μM) and in the experiment on PC3 cells were 58% and -8%, respectively.

Turning to `NCc1cccc(-c2nc3cc(C(=O)NCCCn4ccnc4)ccc3nc2-c2ccccc2)c1` [Compound I-120, 3-[3-(Aminomethyl)phenyl]-N-[3-(1H-imidazol-1-yl)propyl]-2-phenylquinoxaline-6-carboxamide], on hNAMPT protein, the half-inhibitory concentration (IC50) was 2000 to 10000 nM and the inhibition at 1 µM stood at 47%. Besides, the inhibition at 1 µM with PC3 cells came to 1%.

As for `O=C(c1ccc2nc(-c3ccc(F)cc3)c(-c3ccc(F)cc3)nc2c1)N1CCc2nc[nH]c2C1` [Compound I-121, [2,3-bis(4-fluorophenyl)quinoxalin-6-yl](3,4,6,7-tetrahydro-5H-imidazo[4,5-c]pyridin-5-yl)methanone], at hNAMPT protein, the 50% inhibitory concentration (IC50) was in the range of 2000 to 10000 nM. In addition, the inhibition at 1 µM was 12% on hNAMPT protein (compound concentration 1 μM) and 99% with PC3 cells.

Turning to `O=C(NCCc1ncc[nH]1)c1ccc2nc(-c3ccc(F)cc3)c(-c3ccc(F)cc3)nc2c1` [Compound I-122, 2,3-Bis(4-fluorophenyl)-N-[2-(1H-imidazol-2-yl)ethyl]quinoxaline-6-carboxamide], the concentration for half-maximal inhibition (IC50) at hNAMPT protein was 2000 to 10000 nM. Further, the inhibition at 1 µM on hNAMPT protein (compound concentration 1 μM) was 60%. For the same compound, in the experiment on PC3 cells, the inhibition at 1.667 µM came to 4%.

With `NC(=O)c1cn2c(n1)CN(C(=O)c1ccc3nc(-c4ccc(F)cc4)c(-c4ccc(F)cc4)nc3c1)CC2` [Compound I-123, 7-{[2,3-bis(4-fluorophenyl)quinoxalin-6-yl]carbonyl}-5,6,7,8-tetrahydroimidazo[1,2-a]pyrazine-2-carboxamide], the half-inhibitory concentration (IC50) on hNAMPT protein lay within 2000 to 10000 nM. Further, the inhibition at 1 µM came out at 31% on hNAMPT protein (compound concentration 1 μM) and 96% in the experiment on PC3 cells.

Turning to `O=C(NCCCn1ccnc1)c1ccc2nc(-c3ccccc3)c(N3CCCC3)nc2c1` [Compound I-124, N-[3-(1H-imidazol-1-yl)propyl]-2-phenyl-3-(pyrrolidin-1-yl)quinoxaline-6-carboxamide], on hNAMPT protein, the 50% inhibitory concentration (IC50) lay within 1000 to 2000 nM. For the same compound, the values for the inhibition at 1 µM on hNAMPT protein (compound concentration 1 μM) and in the experiment on PC3 cells were 38% and 27%, respectively.

Regarding `CS(=O)(=O)N1CCN(c2nc3ccc(C(=O)NCCCn4ccnc4)cc3nc2-c2ccccc2)CC1` [Compound I-125, N-[3-(1H-imidazol-1-yl)propyl]-2-[4-(methylsulfonyl)piperazin-1-yl]-3-phenylquinoxaline-6-carboxamide], the concentration for half-maximal inhibition (IC50) on hNAMPT protein was in the range of 100 to 500 nM. In addition, the inhibition at 1 µM on hNAMPT protein (compound concentration 1 μM) is 73%; in the experiment on PC3 cells it was -7%.

On to `CN(c1nc2cc(C(=O)NCCCn3ccnc3)ccc2nc1-c1ccccc1)C1CC1` [Compound I-126, 3-[cyclopropyl(methyl)amino]-N-[3-(1H-imidazol-1-yl)propyl]-2-phenylquinoxaline-6-carboxamide], for which the IC50 on hNAMPT protein was in the range of 2000 to 10000 nM. The inhibition at 1 µM on hNAMPT protein (compound concentration 1 μM) is 12%; in the experiment on PC3 cells it was 93%.

For the compound `CN1CCN(c2nc3cc(C(=O)NCCCn4ccnc4)ccc3nc2-c2ccccc2)CC1=O` [Compound I-127, N-[3-(1H-imidazol-1-yl)propyl]-3-(4-methyl-3-oxopiperazin-1-yl)-2-phenylquinoxaline-6-carboxamide], the 50% inhibitory concentration (IC50) on hNAMPT protein is 2000 to 10000 nM. The inhibition at 1 µM was 16% at hNAMPT protein (compound concentration 1 μM) and 95% with PC3 cells.

Take `CN1CCN(c2nc3ccc(C(=O)NCCCn4ccnc4)cc3nc2-c2ccccc2)CC1` [Compound I-128, N-[3-(1H-imidazol-1-yl)propyl]-2-(4-methylpiperazin-1-yl)-3-phenylquinoxaline-6-carboxamide]: the half-inhibitory concentration (IC50) on hNAMPT protein lay within 500 to 1000 nM. Besides, the inhibition at 1 µM at hNAMPT protein (compound concentration 1 μM) is 60%; in the experiment with PC3 cells, -7%.

As to `CS(=O)(=O)N1CCN(c2nc3cc(C(=O)NCCCn4ccnc4)ccc3nc2-c2ccccc2)CC1` [Compound I-129, N-[3-(1H-imidazol-1-yl)propyl]-3-[4-(methylsulfonyl)piperazin-1-yl]-2-phenylquinoxaline-6-carboxamide], the IC50 on hNAMPT protein was in the range of 100 to 500 nM. Also, the inhibition at 1 µM at hNAMPT protein (compound concentration 1 μM) was 70%; with PC3 cells, -6%.

Take `O=C(NCCc1ccccn1)c1ccc2nc(N3CCC(C4CCNCC4)CC3)c(-c3ccccc3)nc2c1` [Compound I-130, 2-(4,4′-Bipiperidin-1-yl)-3-phenyl-N-[2-(pyridin-2-yl)ethyl]quinoxaline-6-carboxamide]: at hNAMPT protein, the half-maximal inhibitory concentration (IC50) was in the range of 100 to 500 nM and the inhibition at 1 µM amounted to 81%. In addition, the inhibition at 1 µM in the experiment on PC3 cells was 93%.

`N#Cc1ccc(-c2nc3ccc(C(=O)NCCCn4ccnc4)cc3nc2-c2ccccc2)cc1` [Compound I-131, 2-(4-cyanophenyl)-N-[3-(1H-imidazol-1-yl)propyl]-3-phenylquinoxaline-6-carboxamide]: at hNAMPT protein, the IC50 lay in the range of 500 to 1000 nM. In addition, the inhibition at 1 µM on hNAMPT protein (compound concentration 1 μM) is 64%; in the experiment with PC3 cells it was -8%.

In the case of `O=C(NCc1ccc2[nH]cnc2c1)c1ccc2nc(N3CCOCC3)c(-c3ccc(F)cc3)nc2c1` [Compound I-132, N-(1H-Benzimidazol-5-ylmethyl)-3-(4-fluorophenyl)-2-(morpholin-4-yl)quinoxaline-6-carboxamide], on hNAMPT protein, the IC50 lay within 500 to 1000 nM and the inhibition at 1 µM is 56%. Moreover, in the experiment on PC3 cells, the inhibition at 1.667 µM came out at 2%.

Consider `O=C(NCc1ccc2cn[nH]c2c1)c1ccc2nc(N3CCCCC3)c(-c3ccc(F)cc3)nc2c1` [Compound I-133, 3-(4-fluorophenyl)-N-(1H-indazol-6-ylmethyl)-2-(piperidin-1-yl)quinoxaline-6-carboxamide], for which, on hNAMPT protein, the 50% inhibitory concentration (IC50) is 100 to 500 nM. Further, the inhibition at 1 µM on hNAMPT protein (compound concentration 1 μM) came to 68%. For the same compound, the inhibition at 1.667 µM in the experiment with PC3 cells was determined as 3%.

Regarding `COc1cccc(-c2nc3ccc(C(=O)NCCc4ncc[nH]4)cc3nc2-c2cccc(OC)c2)c1` [Compound I-134, N-[2-(1H-imidazol-2-yl)ethyl]-2,3-bis(3-methoxyphenyl)quinoxaline-6-carboxamide], the IC50 on hNAMPT protein was 500 to 1000 nM. Also, the inhibition at 1 µM on hNAMPT protein (compound concentration 1 μM) was 65%; in the experiment on PC3 cells, -3%.

`CC(=O)Nc1ccccc1-c1nc2cc(C(=O)NCCCn3ccnc3)ccc2nc1-c1ccccc1` [Compound I-135, 3-(2-acetamidophenyl)-N-[3-(1H-imidazol-1-yl)propyl]-2-phenylquinoxaline-6-carboxamide]: the IC50 at hNAMPT protein lay in the range of 2000 to 10000 nM. Besides, the inhibition at 1 µM on hNAMPT protein (compound concentration 1 μM) came to 16%; in the experiment with PC3 cells, 101%.
